# Tests used:
# Format in all cases: physicochemical
# [1] = Solubility in recrystallization solvents; conditions: solvents marked with an asterisk, such as toluene or water
# [2] = Heats of solution in methanol and acetone; conditions: for Heat of solution, Acetone / Heat of solution, Methanol: endothermic; for Heat of solution, Acetone: solvent acetone; for Heat of solution, Methanol: solvent methanol
# Experimental: Heats of solution were determined using acetone and methanol as suitable solvents. Different polymorphic forms give rise to different heats of solution. […] The value of HT, the heat of transition, is equal to the difference in crystal lattice energy of the two forms and is the same in both solvents. This is predicted since individual enthalpies are solvent dependent but difference are not. […] Heats of solution for Form IV are in progress.
# [3] = Compression and grinding study; conditions: for Stability to compression / Stability to grinding: polymorphic form followed by IR
# Experimental: These spectra were recorded using a Spectra-Tech Plan II microscope coupled to a P-E 1760 FTIR spectrometer (64-256 scans, ratio mode, MCT detector, 4 cm^−1 resolution, dry air purge). Spectra of samples without sample preparation were obtained by mounting crystals on a diamond window. Crushed crystals were prepared using a Spectra-Tech micro-Sample Plan (a compression cell) fitted with diamond windows. A stereo microscope was used to observe the behavior of the crystals during compression. After compression, the diamond windows were separated and a spectrum was recorded of the material adhering to one of the windows.
# Crystalline stability = conditions: Forms I, II and IV compared
# Text: Form I is characterized by a minimum of five years crystalline stability.
# [4] = Thermal analysis (thermomicroscopy, annealing); conditions: for Polymorphic form after annealing (by IR): 10° C./min from ambient to ca. 250° C., held ½-1 hour, slow cooling to room temperature
# Experimental: Differential Scanning Calorimetry (DSC) could not differentiate the three forms of Cipamfylline. […] However, when the heating rate was reduced sufficiently, the melting endotherm appeared as a fused melt, i.e. two components melting. This behavior was common to both Forms I and II.
# The onset of sublimation was different for each form and continued over a wide temperature range (130-290° C. on a non-calibrated instrument). This is not evident on the DSC thermograms. Melting occurred over a range (310-323° C. on a non-calibrated instrument) for all three forms. The possibility of two components melting consecutively could not be distinguished. The sublimate was collected for all three forms and analyzed by IR and NMR.
# The annealing procedure consisted of heating at 10° C./min from ambient to ca. 250° C. and holding at this point for ½-1 hour, then allowing the sample to cool slowly to room temperature.
# This could explain the similarity in melting points of the three forms.
compound,measurement,setting,value
"Nc1nc2c([nH]1)c(=O)n(CC1CC1)c(=O)n2CC1CC1 [Cipamfylline, 1,3-di-cyclopropylmethyl-8-amino xanthine]",Solubility in solvent,[1],particularly low solubility
"Nc1nc2c([nH]1)c(=O)n(CC1CC1)c(=O)n2CC1CC1 [Form I, 1,3-di-cyclopropylmethyl-8-amino xanthine]","Heat of solution, Acetone",[2]; listed as 1,3.93 kcal/mol
same,"Heat of solution, Methanol",[2]; listed as 1,4.81 kcal/mol
same,Stability to compression,[3],stable
same,Stability to grinding,[3],stable
same,Relative stability among the three polymorphs,Crystalline stability,greatest stability
same,Relative stability indicated by thermal experiments,[4],the most stable form
same,Polymorphic form after annealing (by IR),[4],converted to Form I
"Nc1nc2c([nH]1)c(=O)n(CC1CC1)c(=O)n2CC1CC1 [Form II, 1,3-di-cyclopropylmethyl-8-amino xanthine]",Relative stability suggested by heats of solution,"[2]; Form I vs Form II, both solvents",the more stable form
same,"Heat of solution, Acetone",[2]; listed as 2,5.59 kcal/mol
same,"Heat of solution, Methanol",[2]; listed as 2,6.47 kcal/mol
same,Stability to compression,[3],stable to compression
same,Stability to grinding,[3],not to severe grinding
same,Polymorphic form after annealing (by IR),[4],converted to Form I
"Nc1nc2c([nH]1)c(=O)n(CC1CC1)c(=O)n2CC1CC1 [Form IV, 1,3-di-cyclopropylmethyl-8-amino xanthine]",Polymorphic conversion under pressure,"[3]; under pressure, under some circumstances",convert to Form I
